Here are results for 1 molecule from patent US20220047556A1 (INSERM (Institut National de la Santé et de la Recherche …, priority 2018, published 2022).

Assay type in all cases: cell-based, human
In one test the test system is NF-κB phosphorylation. Put plainly: phospho-NFκBp65 Western blot and densitometry in T cells after PMA/Io stimulation. Conditions: Sulconazole 2 μM, FIG. 1M. (Immunoblotting shows a protein as a band on a membrane.)
Test [1] deals with PD-1 expression in T cells. Put plainly: PD-1 mRNA levels in PMA/Io-activated T cells, real-time qPCR. Conditions: T cells incubated 24 h, FIG. 1H. (In general: In qPCR the cycle at which signal appears reflects the starting amount.)
Text: (H) PD-1 mRNA levels following PMA/Io stimulation of T cells, as assessed by Real-time qPCR. Data are represented as fold change to PMA/Io-activated cells assigned 1. […] Data represented as mean±SEM from 3 (H, J) and 2 (0) independent experiments.
Human colon carcinoma cell lines HT29 (microsatellite-instable (MSI)) and HCT116 (microsatellite-stable (MSS)) cells, BALB/c syngeneic colon carcinoma CT26 cell line, and human T cell lines Jurkat, J.RT3-T3.5 (JRT3), Myla, SeAx and HUT-78, were cultured in DMEM or RPMI 1640 complete media.
(§1) Activation of TCR signaling was performed either with phorbol myristate acetate (PMA) and Ionomycin (Io) or with plate-bound anti-CD3.
The test system of the next test is PD-1 positive T cells. Put plainly: Immunofluorescence quantification of PD-1 positive T cells. Conditions: activated T cells treated 24 h, FIGS. 1K and 1L.
Test [2] has as its system JRT3 cells (TCR-activation marker CD69). Put plainly: JRT3 functional assay: CD69 in JRT3 cells co-cultured with EPCR-expressing HT29 cells. Conditions: 24 h, compared to JRT3 cells cultured alone, FIGS. 1N and 1O.
Experimental: The Jurkat T cell line J.RT3-T3.5 (JRT3) stably expressing the human LES-γδ TCR (JRT3-LES) was incubated with the colon cancer cell line HT29 overexpressing the endothelial protein C receptor (HT29-EPCR) (34). The activation of JRT3-LES cells was evaluated by the expression of CD69.
Test [3] concerns PD-1 expression in T cells. Put plainly: PD-1 protein expression in PMA/Io-activated T cells, flow cytometry. Conditions: T cells incubated 24 h, FIGS. 1I and 1J. (In general: A flow cytometer gives signals particle by particle.)
Experimental: as §1
Flow cytometry analyzed were performed on Single cell suspension of hPBMCs and T cells using BD Accuri C6 software, or Diva (BD Biosciences) and FlowJo 9.3.2 (TreeStar) softwares (flow cytometry facility of TBM Core).

In the case of `Clc1ccc(CSC(Cn2ccnc2)c2ccc(Cl)cc2Cl)cc1` (centres unmarked) [Sulconazole, 1-[2-[(4-chlorophenyl)methylsulfanyl]-2-(2,4-dichlorophenyl)ethyl]imidazole], in the test on NF-κB phosphorylation, the “NF-κB phosphorylation after PMA/Io stimulation” value is listed as “inhibited”. In test [1], the “PD-1 expression at the RNA level” value is on record as “repressed PD-1 expression”. The “reduction of PD-1+ cells” value in the test with PD-1 positive T cells turned out to be 50%. In addition, in test [2], the “CD69 expression and number of CD69 positive cells” value was “increased in the absence or presence of Sulconazole”. Moreover, the “PD-1 expression at the protein level” value in test [3] is listed as “repressed PD-1 expression”.
